Test results from US12351574B2, “Selective ligands for modulation of GIRK channels” (Northeastern University, priority 2018, dated 2025).
Where “and” joins values, the source holds several entries; their conditions need not be identical. Equal values may be shown once. Entries after “also recorded” stand apart in the source; their conditions may differ. Read-outs that look alike come from different tables or passages of the source.

Columns and labels:
[1] = target: T1, GIRK1/4 (Homo sapiens, UniProt P48544+P48549); assay: diC8-PIP2 concentration-response (NPo), inside-out macropatches from Xenopus oocytes, GIRK1/4; type: cell-based; set-up: expressed in transfected cells; host or cells: Xenopus laevis oocytes (cRNA injection); details: in the presence of 10 μM compound; for apparent affinity of GIRK1/4 channels for diC8-PIP2: control 48.4±8 μM
T1 sequence (P48549 1-501): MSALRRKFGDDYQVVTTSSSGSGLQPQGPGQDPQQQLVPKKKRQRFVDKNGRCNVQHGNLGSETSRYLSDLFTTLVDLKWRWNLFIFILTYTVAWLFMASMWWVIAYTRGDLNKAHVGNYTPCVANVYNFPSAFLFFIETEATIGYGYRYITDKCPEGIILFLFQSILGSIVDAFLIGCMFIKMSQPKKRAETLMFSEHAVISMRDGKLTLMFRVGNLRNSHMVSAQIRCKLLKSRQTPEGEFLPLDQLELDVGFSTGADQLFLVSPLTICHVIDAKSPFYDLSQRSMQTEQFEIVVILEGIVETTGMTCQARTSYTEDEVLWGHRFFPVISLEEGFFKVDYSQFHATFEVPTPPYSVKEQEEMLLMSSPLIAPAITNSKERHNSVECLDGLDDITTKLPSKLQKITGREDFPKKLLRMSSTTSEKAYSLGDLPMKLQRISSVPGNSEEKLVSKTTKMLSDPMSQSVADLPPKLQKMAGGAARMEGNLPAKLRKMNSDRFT
T1 sequence (P48544 1-419): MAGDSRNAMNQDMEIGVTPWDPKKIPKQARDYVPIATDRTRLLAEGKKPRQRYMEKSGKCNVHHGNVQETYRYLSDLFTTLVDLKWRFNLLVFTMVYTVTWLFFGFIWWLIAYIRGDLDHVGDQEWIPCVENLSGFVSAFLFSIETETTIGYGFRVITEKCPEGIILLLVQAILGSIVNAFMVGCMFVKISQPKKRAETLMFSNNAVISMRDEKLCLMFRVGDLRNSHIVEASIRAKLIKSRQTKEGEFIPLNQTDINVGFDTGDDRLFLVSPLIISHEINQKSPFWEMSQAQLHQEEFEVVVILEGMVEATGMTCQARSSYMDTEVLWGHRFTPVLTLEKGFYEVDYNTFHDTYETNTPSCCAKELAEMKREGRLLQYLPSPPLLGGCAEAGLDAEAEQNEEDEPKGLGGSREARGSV
Source text: The inventors next turned to inside-out macropatches from Xenopus oocytes to compare changes in the PIP2 sensitivity by examining diC8 concentration-responses in the absence and presence of saturating concentrations of each of the activating compounds. […] In FIG. 14B, the control plot overlays the GAT1508 and GAT1521 plots; only ML297 was able to left-shift the sensitivity of GIRK1/4 heteromers to PIP2, while both GAT1508 and GAT1521 were ineffective in changing the sensitivity of these heteromers to PIP2.
(§1) Xenopus laevis oocyte expression: Plasmid DNAs of GIRK channel subunits were linearized prior to in vitro transcription. Capped RNAs were transcribed using mMESSAGE mMACHINE T7 Transcription Kit (Thermo Fisher Scientific). Xenopus oocytes were surgically extracted, dissociated and defolliculated by collagenase treatment, and microinjected with 50 nl of a water solution containing 1 ng of each GIRK subunit RNA. For TEVC experiments, oocytes were kept 2 days at 17° C. before recording, while for NPo experiments oocytes were incubated for up to 4 days at 17° C.
Oocyte macropatch studies: Macropatch GIRK channel activity was recorded from devitellinized oocytes under the inside-out mode of standard patch clamp methods using an AM2400 patch clamp amplifier (A-M systems). […] Oocytes were bathed with a solution comprising (in mM): 96 KCl, 5 EGTA, 1 MgATP and 10 HEPES (pH 7.4). Current amplitudes were measured at −80 mV with a sampling rate of 10 kHz. Data were analyzed using WinEDR and Clampfit software (Molecular Devices).

[2] = target: T2, GIRK1/2 (UniProt P48542+P48549); assay: two-electrode voltage clamp (TEVC) in Xenopus oocytes expressing GIRK1/2 wild-type; type: cell-based, human GIRK1, mouse GIRK2; set-up: expressed in transfected cells; host or cells: Xenopus laevis oocytes (cRNA injection); details: for selectivity for GIRK1/2 over GIRK1/4 (in words) / EC50: TEVC; for selectivity for GIRK1/2 over GIRK1/4 (in words): GIRK1/2 versus GIRK1/4; for EC50: Xenopus oocytes, GIRK1/2 wild-type; for EMAX at GIRK1/2: current normalized to basal current
T2 sequence (P48549 1-501): T1 sequence (P48549 1-501)
T2 sequence (P48542 1-425): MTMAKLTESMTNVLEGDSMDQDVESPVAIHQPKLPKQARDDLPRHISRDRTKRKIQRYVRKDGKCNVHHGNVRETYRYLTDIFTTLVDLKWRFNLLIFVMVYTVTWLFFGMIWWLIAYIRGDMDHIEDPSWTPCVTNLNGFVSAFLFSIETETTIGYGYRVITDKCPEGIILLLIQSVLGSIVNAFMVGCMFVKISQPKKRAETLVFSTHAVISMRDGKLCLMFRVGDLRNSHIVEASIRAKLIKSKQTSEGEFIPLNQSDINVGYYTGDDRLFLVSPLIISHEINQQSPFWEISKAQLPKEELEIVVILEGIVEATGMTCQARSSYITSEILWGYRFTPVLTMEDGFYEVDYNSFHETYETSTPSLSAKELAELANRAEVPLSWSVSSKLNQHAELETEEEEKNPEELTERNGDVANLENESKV
Source text: Molecular biology: For Xenopus oocyte expression, human GIRK1 and human GIRK4 cDNAs were subcloned into pGEMHE. For mammalian expression, human GIRK1 and human GIRK4 cDNAs were subcloned into pcDNA3 and pcDNA3.1/V5-His B, respectively (Invitrogen). Mouse GIRK2 cDNA was subcloned in the dual-function vector, pXoom. Point mutations were introduced using a standard Pfu-based mutagenesis technique according to the QuikChange protocol (Agilent). Mutations were verified by sequencing.
as §1
Xenopus laevis oocyte expression: All cDNA constructs in the pGEMHE vector were linearized using the NheI restriction enzyme, whereas those in the pXoom vector were linearized using the XhoI restriction enzyme. Linearized cDNAs were in vitro-transcribed using the mMessage mMachine® kit (Ambion) kit. Complementary RNA (cRNA) concentrations were quantified by optical density. Xenopus oocytes were surgically extracted, dissociated, and defolliculated by collagenase treatment and microinjected with 50 nl of the desired cRNAs diluted in RNAase-free water. The use of Xenopus laevis frogs for this study was approved by the Institutional Animal Care and Use Committee (IACUC) at Northeastern University. All constructs used in this study were injected to achieve between 1-2 ng per oocyte depending on the channel. Oocytes were incubated for 2 days at 18° C.
Electrophysiology of oocytes: Whole-oocyte currents were measured by conventional two-electrode voltage clamp (TEVC) with a GeneClamp 500 amplifier (Axon Instruments). […] Barium-sensitive currents were normalized to average basal current in the vehicle solutions. The HK solution contained the following: 96 mM KCl, 1 mM NaCl, 1 mM MgCl2, 5 mM KOH/HEPES, pH 7.4. The barium solution consisted of HK+10 mM BaCl2. Five to ten oocytes from the same batch (same frog) were recorded for each group, and the experiments were repeated in at least four batches. Data acquisition and analysis were carried out using pClamp9 (Molecular Devices) and OriginPro (Microcal) software.

[3] = ML297 considered 100%, read-out: EMAX at GIRK1/2, % relative to ML297

apparent affinity of GIRK1/4 channels for diC8-PIP2 [1] [µM]	GAT1508-induced potassium current, GIRK1/2 (in words) ([2]; 10 μM, 10 mM K+, holding potential −100 mV)	GAT1508-induced thallium current, GIRK1/2 (in words) ([2]; 10 μM, 10 mM thallium, holding potential −100 mV)	Emax ([2]; GAT1508 at wild-type GIRK1/2 considered 100%, read-out: EMAX, % of the control GIRK1/2) [%]	Emax [2, 3] [%]	EC50 [2] [µM]	EMAX at GIRK1/2 [2]	potency/efficacy compared to GAT1508 (in words) ([2]; concentration-response, FIGS. 34A-34I)	EMAX of diC8-PIP2 response (NPo), GIRK1/4 ([1]; control 4.4±0.2)	compound-induced current normalized to the basal current, GIRK1+GIRK2 ([2]; 10 μM, High Potassium (HK) solution, FIG. 31)	EMAX at GIRK1/2, % relative to ML297 ([2]; ML297 considered 100%) [%]	SMILES	selectivity for GIRK1/2 over GIRK1/4 (in words) [2]
46 ± 7.4	significantly increased currents	induced current increases	100	76	0.37 ± 0.11	2.42±0.07 and 2.36±0.23	–	–	–	–	Cc1cc(NC(=O)Nc2ccc(Br)s2)n(-c2ccccc2)n1 [GAT1508, 1-(5-bromothiophen-2-yl)-3-(3-methyl-1-phenyl-1H-pyrazol-5-yl)urea]	most selective GIRK1/2 activators relative to GIRK1/4; also recorded: could induce the current increase only in the brain channel
51 ± 6.5	–	–	–	73	1.22 ± 0.08	2.36±0.06	lower potency than GAT1508	–	–	–	Cc1cc(NC(=O)Nc2ccc(C)s2)n(-c2ccccc2)n1 [GAT1521, 1-(3-methyl-1-phenyl-1H-pyrazol-5-yl)-3-(5-methylthiophen-2-yl)urea]	most selective GIRK1/2 activators relative to GIRK1/4; also recorded: retained the specificity for brain over cardiac currents; also recorded: could induce the current increase only in the brain channel
17.4 ± 2	–	–	–	–	0.34 ± 0.12	2.87±0.11	–	5.4±0.2	~2.5	100	Cc1cc(NC(=O)Nc2ccc(F)c(F)c2)n(-c2ccccc2)n1 [ML297, reference compound]	stimulated both brain and cardiac heteromeric channels
